# Source: patent US10954269B2, “Anti-inflammatory tripeptides” (Dr. August Wolff Gmbh & Co. KG Arzneimittel, priority 2013, dated 2021)
# Tests used:
# primary human T-cells = test: Cytokine secretion on protein level in activated primary human T-cells (13-plex FACS / Luminex, supernatant); type: cell-based; conditions: 10^−9M
# Procedure: (§1) Primary T-cells were isolated from peripheral blood from healthy volunteers and from secondary lymphatic organs from naïve C57BL/6 mice, respectively. The cells were stimulated with phorbol-12-myristate-13-acetate (PMA)/Ionomycin and interferon-gamma (IFN-γ), respectively, for 48 h to activate the cells. The activated cells release pro-inflammatory cytokines. In parallel a human (HaCaT) keratinocyte cell line was activated with PMA/Ionomycin and IFN-γ, respectively, too. […] At the same time release of anti-inflammatory IL-10 was inhibited. Two days after addition of PMA/Ionomycin and IFN-γ, respectively, the induction of IL-1 secretion was determined in the supernatant for proving that the cells are activated. […] The anti-inflammatory properties of the tripeptides were determined 48 h and 72 h following stimulation. A 13-plex-system based FACS analysis was used for showing the reduced secretion of pro-inflammatory cytokines in the supernatant. Data for IL-1, IL-2, IL-6, IL-12p70 IL-17, IFN-γ and TNF-α are considered to be most relevant. Thus, analysis of the anti-inflammatory properties of the tripeptides is preferably based on the results obtained for these analytes. […] Using this method the gene expression of pro-inflammatory markers like IL-6, IL-17, IFN-γ and TNF-α was determined.
# (§2) In a third experiment murine and human T cells and HaCaT cells were stimulated with PMA/Ionomycin and treated with Examples 14, 15, 16 and 17 at 10^−7 M, 10^−9 M and 10^−11 M. Cytokine concentrations (IFN-γ, IL-17 and IL-10 for T cells and IFN-γ for HaCat) were assessed in the supernatants using the Luminex technology. Expression of genes coding for Il-1β, IL-6 and TNF-α was determined. […] Moreover, concentrations of pro-inflammatory cytokines IFN-γ and IL-17 was reduced in the supernatants whereas the concentration of anti-inflammatory cytokine IL-10 was increased. […]
# (§3) For the biological assay two human cell lines of different origin were chosen to allow for translation of the results obtained. A HaCaT cell is a cell type belonging to an immortal human keratinocyte line used in scientific research. Its use in research allows for the characterization of human keratinocyte using a model that is reproducible and representing a human epithelial cell line. In contrast human T-lymphocytes (T-cells) are a type of lymphocyte (itself a type of white blood cell) that play a central role in cell-mediated inflammation/immunity.
# [1] = test system: human keratinocyte cell line (HaCaT); test: Cytokine secretion on protein level in activated human keratinocyte cell line HaCaT (13-plex FACS / Luminex, supernatant); type: cell-based; conditions: for IL-1 cytokine concentration / IL-2 cytokine concentration / IL-4 cytokine concentration / IL-5 cytokine concentration / IL-6 cytokine concentration / IL-9 cytokine concentration / IL-10 cytokine concentration / IL-13 cytokine concentration / IL-17 cytokine concentration / TNF-α cytokine concentration / IL-12p70 cytokine concentration / IL-22 cytokine concentration / IFN-γ cytokine concentration: 10^−9M; for IL-12p70 cytokine concentration / IL-22 cytokine concentration: excluded from the final assessment
# Procedure: as §1, §2, §3
# primary murine T-cells = test: Cytokine secretion on protein level in activated primary murine T-cells (13-plex FACS / Luminex, supernatant); type: cell-based, C57BL/6 mice; conditions: 10^−9M
# Procedure: as §1
# In a third experiment murine and human T cells and HaCaT cells were stimulated with PMA/Ionomycin and treated with Examples 14, 15, 16 and 17 at 10^−7 M, 10^−9 M and 10^−11 M. Cytokine concentrations (IFN-γ, IL-17 and IL-10 for T cells and IFN-γ for HaCat) were assessed in the supernatants using the Luminex technology. Expression of genes coding for Il-1β, IL-6 and TNF-α was determined. […] Moreover, concentrations of pro-inflammatory cytokines IFN-γ and IL-17 was reduced in the supernatants whereas the concentration of anti-inflammatory cytokine IL-10 was increased.
# The anti-inflammatory and immunomodulatory effects of selected examples of the present invention were compared with common immunosuppressants. Thus, cells activated with PMA/Ionomycin and IFN-γ, respectively, were stimulated with MMF or dexamethasone. Following stimulation the secretion of pro-inflammatory cytokines was analyzed on protein and gene level (Table 9 and FIGS. 4-6).
# [2] = primary human T-cells stimulated with IFN-γ
# [3] = primary human T-cells stimulated with PBS
# [4] = primary human T-cells stimulated with PMA/Ionomycin
# [5] = HaCaT stimulated with PMA/Ionomycin
# [6] = primary murine T-cells stimulated with IFN-γ
# [7] = primary murine T-cells stimulated with PBS
# [8] = primary murine T-cells stimulated with PMA/Ionomycin
# [9] = primary murine T-cells stimulated with PMA/Ionomycin, 1:10 dilution of the supernatants
substance,measurement,setting,value
H-(L)-Lys-(D)-Pro-N^α-methyl-(L)-Thr-OH [Example 2],IL-1 cytokine concentration,primary human T-cells; [2],314.88 pg/mL
same,IL-2 cytokine concentration,primary human T-cells; [2],740.3 pg/mL
same,IL-4 cytokine concentration,primary human T-cells; [2],116.26 pg/mL
same,IL-5 cytokine concentration,primary human T-cells; [2],177.72 pg/mL
same,IL-6 cytokine concentration,primary human T-cells; [2],97.68 pg/mL
same,IL-9 cytokine concentration,primary human T-cells; [2],106.37 pg/mL
same,IL-10 cytokine concentration,primary human T-cells; [2],146.79 pg/mL
same,IL-12p70 cytokine concentration,primary human T-cells; [2],804.93 pg/mL
same,IL-13 cytokine concentration,primary human T-cells; [2],97.39 pg/mL
same,IL-17 cytokine concentration,primary human T-cells; [2],168.9 pg/mL
same,IL-22 cytokine concentration,primary human T-cells; [2],21970.6 pg/mL
same,TNF-α cytokine concentration,primary human T-cells; [2],188.29 pg/mL
same,IFN-γ cytokine concentration,primary human T-cells; [3],0 pg/mL
same,IL-1 cytokine concentration,primary human T-cells; [3],305.62 pg/mL
same,IL-2 cytokine concentration,primary human T-cells; [3],985.16 pg/mL
same,IL-4 cytokine concentration,primary human T-cells; [3],151.33 pg/mL
same,IL-5 cytokine concentration,primary human T-cells; [3],310.87 pg/mL
same,IL-6 cytokine concentration,primary human T-cells; [3],84.38 pg/mL
same,IL-9 cytokine concentration,primary human T-cells; [3],116.55 pg/mL
same,IL-10 cytokine concentration,primary human T-cells; [3],253.29 pg/mL
same,IL-12p70 cytokine concentration,primary human T-cells; [3],226.23 pg/mL
same,IL-13 cytokine concentration,primary human T-cells; [3],90.3 pg/mL
same,IL-17 cytokine concentration,primary human T-cells; [3],238.4 pg/mL
same,IL-22 cytokine concentration,primary human T-cells; [3],2242.06 pg/mL
same,TNF-α cytokine concentration,primary human T-cells; [3],211.85 pg/mL
same,IFN-γ cytokine concentration,primary human T-cells; [4],2726.77 pg/mL
same,IL-1 cytokine concentration,primary human T-cells; [4],69689.2 pg/mL
same,IL-2 cytokine concentration,primary human T-cells; [4],12000 pg/mL
same,IL-4 cytokine concentration,primary human T-cells; [4],239.02 pg/mL
same,IL-5 cytokine concentration,primary human T-cells; [4],325.76 pg/mL
same,IL-6 cytokine concentration,primary human T-cells; [4],1533.99 pg/mL
same,IL-9 cytokine concentration,primary human T-cells; [4],142.93 pg/mL
same,IL-10 cytokine concentration,primary human T-cells; [4],3938.15 pg/mL
same,IL-12p70 cytokine concentration,primary human T-cells; [4],1413.17 pg/mL
same,IL-13 cytokine concentration,primary human T-cells; [4],760.63 pg/mL
same,IL-17 cytokine concentration,primary human T-cells; [4],3476.92 pg/mL
same,IL-22 cytokine concentration,primary human T-cells; [4],24128.2 pg/mL
same,TNF-α cytokine concentration,primary human T-cells; [4],3600 pg/mL
same,IL-1 cytokine concentration,[1]; HaCaT stimulated with IFN-γ,265.46 pg/mL
same,IL-2 cytokine concentration,[1]; HaCaT stimulated with IFN-γ,96.34 pg/mL
same,IL-4 cytokine concentration,[1]; HaCaT stimulated with IFN-γ,71.76 pg/mL
same,IL-5 cytokine concentration,[1]; HaCaT stimulated with IFN-γ,109.73 pg/mL
same,IL-6 cytokine concentration,[1]; HaCaT stimulated with IFN-γ,641.89 pg/mL
same,IL-9 cytokine concentration,[1]; HaCaT stimulated with IFN-γ,104.08 pg/mL
same,IL-10 cytokine concentration,[1]; HaCaT stimulated with IFN-γ,129.2 pg/mL
same,IL-13 cytokine concentration,[1]; HaCaT stimulated with IFN-γ,61.18 pg/mL
same,IL-17 cytokine concentration,[1]; HaCaT stimulated with IFN-γ,629.16 pg/mL
same,TNF-α cytokine concentration,[1]; HaCaT stimulated with IFN-γ,79.97 pg/mL
same,IL-12p70 cytokine concentration,[1]; HaCaT stimulated with IFN-γ,1904.09 pg/mL
same,IL-22 cytokine concentration,[1]; HaCaT stimulated with IFN-γ,0 pg/mL
same,IFN-γ cytokine concentration,[1]; HaCaT stimulated with PBS,397.45 pg/mL
same,IL-1 cytokine concentration,[1]; HaCaT stimulated with PBS,251.25 pg/mL
same,IL-2 cytokine concentration,[1]; HaCaT stimulated with PBS,177.85 pg/mL
same,IL-4 cytokine concentration,[1]; HaCaT stimulated with PBS,90.8 pg/mL
same,IL-5 cytokine concentration,[1]; HaCaT stimulated with PBS,189.12 pg/mL
same,IL-6 cytokine concentration,[1]; HaCaT stimulated with PBS,75.53 pg/mL
same,IL-9 cytokine concentration,[1]; HaCaT stimulated with PBS,139.65 pg/mL
same,IL-10 cytokine concentration,[1]; HaCaT stimulated with PBS,151.26 pg/mL
same,IL-13 cytokine concentration,[1]; HaCaT stimulated with PBS,69.36 pg/mL
same,IL-17 cytokine concentration,[1]; HaCaT stimulated with PBS,569.9 pg/mL
same,TNF-α cytokine concentration,[1]; HaCaT stimulated with PBS,84.84 pg/mL
same,IL-12p70 cytokine concentration,[1]; HaCaT stimulated with PBS,1864.02 pg/mL
same,IL-22 cytokine concentration,[1]; HaCaT stimulated with PBS,14446.9 pg/mL
same,IFN-γ cytokine concentration,[1]; [5],704.33 pg/mL
same,IL-1 cytokine concentration,[1]; [5],204.23 pg/mL
same,IL-2 cytokine concentration,[1]; [5],130.08 pg/mL
same,IL-4 cytokine concentration,[1]; [5],58.48 pg/mL
same,IL-5 cytokine concentration,[1]; [5],129.65 pg/mL
same,IL-6 cytokine concentration,[1]; [5],129.99 pg/mL
same,IL-9 cytokine concentration,[1]; [5],104.14 pg/mL
same,IL-10 cytokine concentration,[1]; [5],97.55 pg/mL
same,IL-13 cytokine concentration,[1]; [5],69.36 pg/mL
same,IL-17 cytokine concentration,[1]; [5],369.01 pg/mL
same,TNF-α cytokine concentration,[1]; [5],62.15 pg/mL
same,IL-12p70 cytokine concentration,[1]; [5],0 pg/mL
same,IL-22 cytokine concentration,[1]; [5],14806.4 pg/mL
same,secretion / expression of pro-inflammatory cytokines (supernatant),[1]; activated human keratinocytes,decreased secretion
same,IL-1 cytokine concentration,primary murine T-cells; [6],22.78 pg/mL
same,IL-2 cytokine concentration,primary murine T-cells; [6],0 pg/mL
same,IL-4 cytokine concentration,primary murine T-cells; [6],0 pg/mL
same,IL-5 cytokine concentration,primary murine T-cells; [6],72.11 pg/mL
same,IL-6 cytokine concentration,primary murine T-cells; [6],23.14 pg/mL
same,IL-10 cytokine concentration,primary murine T-cells; [6],72.95 pg/mL
same,IL-13 cytokine concentration,primary murine T-cells; [6],0 pg/mL
same,IL-17 cytokine concentration,primary murine T-cells; [6],0 pg/mL
same,IL-21 cytokine concentration,primary murine T-cells; [6],0 pg/mL
same,IL-22 cytokine concentration,primary murine T-cells; [6],8.52 pg/mL
same,IL-27 cytokine concentration,primary murine T-cells; [6],1234.48 pg/mL
same,TNF-α cytokine concentration,primary murine T-cells; [6],0 pg/mL
same,IFN-γ cytokine concentration,primary murine T-cells; [7],2375.02 pg/mL
same,IL-1 cytokine concentration,primary murine T-cells; [7],36.6 pg/mL
same,IL-2 cytokine concentration,primary murine T-cells; [7],138.15 pg/mL
same,IL-4 cytokine concentration,primary murine T-cells; [7],0 pg/mL
same,IL-5 cytokine concentration,primary murine T-cells; [7],45.71 pg/mL
same,IL-6 cytokine concentration,primary murine T-cells; [7],0 pg/mL
same,IL-10 cytokine concentration,primary murine T-cells; [7],0 pg/mL
same,IL-13 cytokine concentration,primary murine T-cells; [7],0 pg/mL
same,IL-17 cytokine concentration,primary murine T-cells; [7],0 pg/mL
same,IL-21 cytokine concentration,primary murine T-cells; [7],0 pg/mL
same,IL-22 cytokine concentration,primary murine T-cells; [7],0 pg/mL
same,IL-27 cytokine concentration,primary murine T-cells; [7],0 pg/mL
same,TNF-α cytokine concentration,primary murine T-cells; [7],0 pg/mL
same,IL-1 cytokine concentration,primary murine T-cells; [8],0 pg/mL
same,IL-4 cytokine concentration,primary murine T-cells; [8],129.47 pg/mL
same,IL-5 cytokine concentration,primary murine T-cells; [8],350.49 pg/mL
same,IL-6 cytokine concentration,primary murine T-cells; [8],338.28 pg/mL
same,IL-10 cytokine concentration,primary murine T-cells; [8],155.42 pg/mL
same,IL-13 cytokine concentration,primary murine T-cells; [8],4703.82 pg/mL
same,IL-17 cytokine concentration,primary murine T-cells; [8],649.14 pg/mL
same,IL-21 cytokine concentration,primary murine T-cells; [8],0 pg/mL
same,IL-22 cytokine concentration,primary murine T-cells; [8],670.15 pg/mL
same,IL-27 cytokine concentration,primary murine T-cells; [8],778.4 pg/mL
same,TNF-α cytokine concentration,primary murine T-cells; [8],628.15 pg/mL
same,IFN-γ* cytokine concentration,primary murine T-cells; [9],0 pg/mL
same,IL-2* cytokine concentration,primary murine T-cells; [9],744.58 pg/mL
